Measured values reported in ChEMBL document CHEMBL1144590, “Thienopyridine urea inhibitors of KDR kinase” (Bioorg Med Chem Lett, 2007).

Columns and labels:
[1] = molecular target: T1, Vascular endothelial growth factor receptor 2 (Homo sapiens, UniProt P35968); type: functional, cell-based, NIH3T3
[2] = molecular target: T1, Vascular endothelial growth factor receptor 2
Mus musculus = test: Inhibition of estradiol-induced mouse uterine edema […]; type: functional
[3] = Half life in mouse at 3 mg/kg, iv; type: ADME, organism-based; set-up: dose 3 mg/kg, route intravenous; conditions: in vivo
Cytochrome P450 3A4 = Cytochrome P450 3A4 (Homo sapiens, UniProt P08684); test: Inhibition of CYP3A4; type: ADME
Chain of Cytochrome P450 3A4 (P08684 whole entry): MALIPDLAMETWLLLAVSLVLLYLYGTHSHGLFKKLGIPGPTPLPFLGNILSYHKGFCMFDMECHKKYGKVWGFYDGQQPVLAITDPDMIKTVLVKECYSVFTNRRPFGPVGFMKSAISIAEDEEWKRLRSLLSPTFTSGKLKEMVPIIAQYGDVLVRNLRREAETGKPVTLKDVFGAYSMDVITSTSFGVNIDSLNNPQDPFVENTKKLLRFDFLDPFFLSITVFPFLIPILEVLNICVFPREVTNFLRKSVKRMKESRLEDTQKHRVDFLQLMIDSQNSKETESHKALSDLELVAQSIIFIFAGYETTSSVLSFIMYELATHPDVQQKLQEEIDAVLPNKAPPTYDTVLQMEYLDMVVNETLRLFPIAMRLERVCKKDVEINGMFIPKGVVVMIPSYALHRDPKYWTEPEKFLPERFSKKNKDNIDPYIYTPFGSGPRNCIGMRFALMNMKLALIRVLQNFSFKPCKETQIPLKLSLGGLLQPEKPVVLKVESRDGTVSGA

T1 sequence (P35968 whole entry): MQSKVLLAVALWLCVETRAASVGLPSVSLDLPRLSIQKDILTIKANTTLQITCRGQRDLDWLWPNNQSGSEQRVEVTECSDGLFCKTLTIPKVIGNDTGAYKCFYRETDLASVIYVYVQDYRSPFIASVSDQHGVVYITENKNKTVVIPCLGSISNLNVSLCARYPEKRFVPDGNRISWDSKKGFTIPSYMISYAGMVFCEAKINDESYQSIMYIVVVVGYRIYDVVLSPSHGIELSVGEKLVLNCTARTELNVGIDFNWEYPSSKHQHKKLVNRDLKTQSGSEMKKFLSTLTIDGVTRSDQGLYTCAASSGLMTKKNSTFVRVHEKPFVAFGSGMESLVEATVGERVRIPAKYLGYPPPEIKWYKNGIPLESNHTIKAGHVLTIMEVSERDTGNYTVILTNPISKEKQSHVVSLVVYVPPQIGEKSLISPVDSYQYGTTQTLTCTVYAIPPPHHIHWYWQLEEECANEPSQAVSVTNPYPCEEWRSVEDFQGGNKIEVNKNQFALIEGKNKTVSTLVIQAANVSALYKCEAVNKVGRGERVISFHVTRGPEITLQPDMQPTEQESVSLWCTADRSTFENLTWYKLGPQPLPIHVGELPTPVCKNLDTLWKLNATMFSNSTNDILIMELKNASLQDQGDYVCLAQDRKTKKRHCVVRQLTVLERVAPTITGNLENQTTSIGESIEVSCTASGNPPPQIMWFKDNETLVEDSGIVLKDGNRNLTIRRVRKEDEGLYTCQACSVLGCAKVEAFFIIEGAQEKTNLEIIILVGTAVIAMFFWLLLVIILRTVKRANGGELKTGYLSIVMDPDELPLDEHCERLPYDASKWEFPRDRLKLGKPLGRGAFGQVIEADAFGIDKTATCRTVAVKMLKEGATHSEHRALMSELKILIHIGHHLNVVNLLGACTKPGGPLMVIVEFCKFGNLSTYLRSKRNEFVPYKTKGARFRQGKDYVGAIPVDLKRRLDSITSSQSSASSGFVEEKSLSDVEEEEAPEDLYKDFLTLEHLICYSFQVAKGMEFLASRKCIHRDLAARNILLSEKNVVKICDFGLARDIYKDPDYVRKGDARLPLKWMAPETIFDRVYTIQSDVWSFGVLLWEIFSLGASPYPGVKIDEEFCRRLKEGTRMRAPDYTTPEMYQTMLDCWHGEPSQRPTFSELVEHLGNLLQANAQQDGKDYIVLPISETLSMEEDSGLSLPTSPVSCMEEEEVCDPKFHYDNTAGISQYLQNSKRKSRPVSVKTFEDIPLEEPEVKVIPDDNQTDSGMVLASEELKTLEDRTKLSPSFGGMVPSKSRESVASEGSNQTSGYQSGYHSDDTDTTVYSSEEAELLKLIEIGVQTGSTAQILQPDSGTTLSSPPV

IC50 [1] | IC50 [2] | Structure (SMILES) | further results
32 nM | 25 nM | CCc1cccc(NC(=O)Nc2ccc(-c3csc4ccnc(N)c34)cc2)c1 | –
1 nM | 8 nM | Cc1cccc(NC(=O)Nc2ccc(-c3csc4c(-c5cncnc5)cnc(N)c34)cc2)c1 | –
– | 388 nM | Cc1cccc(NC(=O)Nc2ccc(-c3csc4c(-c5cncc6ccccc56)cnc(N)c34)cc2)c1 | –
– | 4900 nM | Nc1ccc(-c2csc3ccnc(N)c23)cc1 | –
– | 12000 nM | Nc1nccc2scc(-c3ccc(NC(=O)c4ccccc4)cc3)c12 | –
72 nM | 56 nM | Nc1nccc2scc(-c3ccc(NC(=O)Nc4ccccc4)cc3)c12 | –
41 nM | 10 nM | Cc1ccc(NC(=O)Nc2ccc(-c3csc4ccnc(N)c34)cc2)cc1C | –
48 nM | 16 nM | Cc1cc(C)cc(NC(=O)Nc2ccc(-c3csc4ccnc(N)c34)cc2)c1 | –
– | 420 nM | Nc1nccc2scc(-c3ccc(NC(=O)NC4CCCC4)cc3)c12 | –
– | 4900 nM | Cc1cccc(N(C)C(=O)Nc2ccc(-c3csc4ccnc(N)c34)cc2)c1 | –
– | 23 nM | Cc1cccc(NC(=O)N(C)c2ccc(-c3csc4ccnc(N)c34)cc2)c1 | –
– | 94 nM | Cc1cccc(NC(=O)Cc2ccc(-c3csc4ccnc(N)c34)cc2)c1 | –
895 nM | 75 nM | Nc1nccc2scc(-c3ccc(NC(=O)Nc4cccc5ccccc45)cc3)c12 | –
15 nM | 21 nM | Nc1nccc2scc(-c3ccc(NC(=O)Nc4ccc5ccccc5c4)cc3)c12 | –
61 nM | 38 nM | Nc1nccc2scc(-c3ccc(NC(=O)Nc4ccsc4)cc3)c12 | –
– | 491 nM | Nc1nccc2scc(-c3ccc(NC(=O)NC4CCCCC4)cc3)c12 | –
– | 250 nM | Cc1cccc(NC(=O)Nc2cccc(-c3csc4ccnc(N)c34)c2)c1 | –
141 nM | 26 nM | Cc1ccc(NC(=O)Nc2ccc(-c3csc4ccnc(N)c34)cc2)cc1 | –
33 nM | 13 nM | Cc1cccc(NC(=O)Nc2ccc(-c3csc4c(-c5ccccc5)cnc(N)c34)cc2)c1 | –
56 nM | 11 nM | CNC(=O)c1cccc(-c2cnc(N)c3c(-c4ccc(NC(=O)Nc5cccc(C)c5)cc4)csc23)c1 | –
– | 410 nM | Cc1cccc(NC(=S)Nc2ccc(-c3csc4ccnc(N)c34)cc2)c1 | –
– | 27 nM | Cc1cccc(NC(=O)Nc2ccc(-c3c(C)sc4ccnc(N)c34)cc2)c1 | –
– | 520 nM | Cc1cccc(CC(=O)Nc2ccc(-c3csc4ccnc(N)c34)cc2)c1 | –
– | 152 nM | Cc1ccccc1NC(=O)Nc1ccc(-c2csc3ccnc(N)c23)cc1 | –
198 nM | 45 nM | N#Cc1cccc(NC(=O)Nc2ccc(-c3csc4ccnc(N)c34)cc2)c1 | –
48 nM | 30 nM | Nc1nccc2scc(-c3ccc(NC(=O)Nc4cccs4)cc3)c12 | –
29 nM | 11 nM | Cc1cccc(NC(=O)Nc2ccc(-c3csc4c(-c5ccc(O)cc5)cnc(N)c34)cc2)c1 | –
– | – | Cc1cccc(NC(=O)Nc2ccc(-c3csc4c(-c5cccnc5)cnc(N)c34)cc2)c1 | ED50 (Mus musculus): 2.1 mg/kg; half-life [3]: 24 min; IC50 (Cytochrome P450 3A4): 250 nM
– | > 12500 nM | Nc1nccc2scc(-c3ccccc3)c12 | –
